Literature values as cited in patent US11957650B2, “Formulation and method for the prevention and/or treatment of hangover symptoms” (PHOENIX PHARMACEUTICALS AUSTRALIA PTY LTD, priority 2016, dated 2024).

Test system: acetaldehyde poisoning in rats
Conditions: for Effective dose in rats: footnotes * and † not given

O=C1O[C@H]([C@@H](O)CO)C(O)=C1O [Ascorbic acid]
Effective dose in rats: 50 mg

N[C@@H](CS)C(=O)O [L-cysteine]
mortality due to acetaldehyde poisoning (L-cysteine alone [13, 14]): markedly reduce the mortality
Effective dose in rats: 34 mg

Cc1ncc(C[n+]2csc(CCO)c2C)c(N)n1 [thiamine, Thiamine]
mortality in rats poisoned with acetaldehyde, thiamine added to L-cysteine (addition of thiamine to L-cysteine [13, 14]): enhanced the ability of L-cysteine to reduce mortality

Cc1ncc(C[n+]2csc(CCO)c2C)c(N)n1.Cl.[Cl-] [Thiamine•HCl]
Effective dose in rats: 42 mg
